This is an account of results in US9234018B2, “Compositions and methods for the treatment of VprBP-related cancers” (University of Southern California, priority 2013, dated 2016).

Data set [1] concerns the target T1, VprBP (Homo sapiens, UniProt Q9Y4B6).
T1 construct: His (N); made in house; host or cells: Sf9 insect cells (baculovirus)
The data set can be described thus: In vitro kinase assay, VprBP (recombinant VprBP and H2A; kinase panel). Format: biochemical. On the set-up: Inhibition of VprBP and H2AT120p in in vitro kinase assay (library screen): dose or concentration left out as unconfirmed. Here is the method:
Recombinant mononucleosomes and nucleosome arrays were reconstituted using recombinant histone octamers as recently described (Jaskelioff, M. et al. (2000) Mol. Cell. Biol. 20:3058-3068; Robinson, P. J. et al. (2008) J. Mol. Biol. 381:816-825). For kinase assays, recombinant VprBP was incubated with free histones ([…]) or reconstituted nucleosomes ([…]) in kinase buffer (50 mM Tris-HCl [pH 7.5], 20 mM EGTA, 10 mM MgCl2, 1 mM DTT, and 1 mM b-glycerophosphate) containing 10 mCi of [g-32P] ATP and 4 mM ATP for 30 min at 30_C. Proteins from each reaction were separated by SDS-PAGE, Coomassie blue stained, dried, and visualized by autoradiography. To create VprBP inhibitors, a collection of 5,000 compounds was screened in the same kinase assays at a final concentration […]. In vitro transcription assays were as described (Kim, K. et al. (2012) Mol. Cell. Biol. 32:783-796), except that G5ML-601 nucleosome arrays (100 ng) and Gal4-VP16 (15 ng) were used for the reactions. Recombinant VprBP (25 or 50 ng) and ATP (10 mM) were added before p300 (20 ng) and AcCoA (10 mM).

Data set [2] has as its target ATM (Homo sapiens, UniProt Q13315). The data set can be described thus: Kinase selectivity panel. Format: biochemical.
For data set [3], the target named is BCK. Briefly: Kinase selectivity panel. The class given is biochemical, human.
Data set [4] concerns the target CDK7 (Homo sapiens, UniProt P50613). The data set can be described thus: Kinase selectivity panel. The class given is biochemical.
Data set [5] addresses EEF2K (Homo sapiens, UniProt O00418). The data set can be described thus: Kinase selectivity panel. The class given is biochemical.
The target of data set [6] is GSK3β (Homo sapiens, UniProt P49841). Briefly: Kinase selectivity panel. The class given is biochemical.
Data set [7] deals with PRKCD (Homo sapiens, UniProt Q05655). Briefly: Kinase selectivity panel. Format: biochemical.
For data set [8], the target named is STK25 (Homo sapiens, UniProt O00506). Briefly: Kinase selectivity panel. Format: biochemical.
A short description of data set [9]: B32B3 stability assessment in plasma. The class given is in vitro ADME. To be noted: mouse plasma. The method, then: To assess the metabolic stability of B32B3 in mouse, dog, monkey, and human plasma, the compound was spiked into blank plasma to a concentration of 10 μM. At 0, 15, 30, 60, 90, and 120 min time points, a 30 μl aliquot was collected and mixed with 270 μl acetonitrile solution for protein precipitation. After centrifugation, the supernatant was analyzed by LC-MS/MS. In vitro half-life of B32B3 in plasma was calculated using the slope (k) of the log-linear regression from the concentration remaining parent compound versus time. T1/2=−ln 2/k Mouse Pharmacokinetics of B32B3

T1 sequence (Q9Y4B6 whole entry): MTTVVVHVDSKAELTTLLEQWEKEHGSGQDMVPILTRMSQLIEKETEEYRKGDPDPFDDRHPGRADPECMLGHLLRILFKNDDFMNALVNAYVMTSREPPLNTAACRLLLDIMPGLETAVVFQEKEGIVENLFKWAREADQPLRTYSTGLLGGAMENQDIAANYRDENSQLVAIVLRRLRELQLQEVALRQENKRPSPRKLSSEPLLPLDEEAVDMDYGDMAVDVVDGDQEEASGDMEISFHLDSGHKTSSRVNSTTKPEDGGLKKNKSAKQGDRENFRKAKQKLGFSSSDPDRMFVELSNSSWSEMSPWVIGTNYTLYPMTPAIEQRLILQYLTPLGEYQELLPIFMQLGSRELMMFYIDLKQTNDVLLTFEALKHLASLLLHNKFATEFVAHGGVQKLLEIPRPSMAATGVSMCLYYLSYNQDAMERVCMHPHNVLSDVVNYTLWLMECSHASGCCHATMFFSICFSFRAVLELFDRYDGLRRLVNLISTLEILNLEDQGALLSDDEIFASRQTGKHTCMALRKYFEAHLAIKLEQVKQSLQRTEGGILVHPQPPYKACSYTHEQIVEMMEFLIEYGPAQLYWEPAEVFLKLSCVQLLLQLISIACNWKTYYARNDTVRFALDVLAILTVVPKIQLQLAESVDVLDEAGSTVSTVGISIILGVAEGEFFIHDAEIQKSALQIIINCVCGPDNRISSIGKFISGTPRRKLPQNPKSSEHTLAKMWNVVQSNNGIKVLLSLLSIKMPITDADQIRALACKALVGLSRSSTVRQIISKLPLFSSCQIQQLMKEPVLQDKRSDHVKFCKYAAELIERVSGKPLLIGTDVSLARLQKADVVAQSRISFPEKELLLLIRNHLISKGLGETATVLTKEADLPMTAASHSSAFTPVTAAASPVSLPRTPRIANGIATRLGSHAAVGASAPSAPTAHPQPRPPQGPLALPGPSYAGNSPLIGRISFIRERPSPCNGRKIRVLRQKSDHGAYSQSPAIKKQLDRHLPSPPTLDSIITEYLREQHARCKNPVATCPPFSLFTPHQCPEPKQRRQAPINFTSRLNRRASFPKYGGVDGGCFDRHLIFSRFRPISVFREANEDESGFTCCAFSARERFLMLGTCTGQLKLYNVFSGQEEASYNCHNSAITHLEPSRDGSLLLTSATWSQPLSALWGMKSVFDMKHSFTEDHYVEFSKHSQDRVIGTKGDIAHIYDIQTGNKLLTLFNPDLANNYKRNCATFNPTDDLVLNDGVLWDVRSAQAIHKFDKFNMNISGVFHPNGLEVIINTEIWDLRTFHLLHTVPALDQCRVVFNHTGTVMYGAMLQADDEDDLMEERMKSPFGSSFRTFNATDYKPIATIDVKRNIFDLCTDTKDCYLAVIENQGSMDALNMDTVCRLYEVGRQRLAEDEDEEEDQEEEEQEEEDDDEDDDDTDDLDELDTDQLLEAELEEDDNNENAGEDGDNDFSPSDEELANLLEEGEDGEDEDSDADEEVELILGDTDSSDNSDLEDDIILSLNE
Sequence of STK25 (O00506 whole entry): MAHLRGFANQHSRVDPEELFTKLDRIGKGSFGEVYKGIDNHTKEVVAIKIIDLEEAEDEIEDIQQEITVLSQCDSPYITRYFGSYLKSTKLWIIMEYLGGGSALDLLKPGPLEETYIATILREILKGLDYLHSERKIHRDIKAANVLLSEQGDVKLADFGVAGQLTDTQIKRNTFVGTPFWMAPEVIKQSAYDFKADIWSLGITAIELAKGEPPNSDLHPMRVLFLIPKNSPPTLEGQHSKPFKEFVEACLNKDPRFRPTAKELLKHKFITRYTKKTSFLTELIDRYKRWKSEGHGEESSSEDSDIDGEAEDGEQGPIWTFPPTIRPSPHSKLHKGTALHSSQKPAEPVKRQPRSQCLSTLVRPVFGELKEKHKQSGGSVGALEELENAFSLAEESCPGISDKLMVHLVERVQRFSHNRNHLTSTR
Sequence of GSK3β (P49841 whole entry): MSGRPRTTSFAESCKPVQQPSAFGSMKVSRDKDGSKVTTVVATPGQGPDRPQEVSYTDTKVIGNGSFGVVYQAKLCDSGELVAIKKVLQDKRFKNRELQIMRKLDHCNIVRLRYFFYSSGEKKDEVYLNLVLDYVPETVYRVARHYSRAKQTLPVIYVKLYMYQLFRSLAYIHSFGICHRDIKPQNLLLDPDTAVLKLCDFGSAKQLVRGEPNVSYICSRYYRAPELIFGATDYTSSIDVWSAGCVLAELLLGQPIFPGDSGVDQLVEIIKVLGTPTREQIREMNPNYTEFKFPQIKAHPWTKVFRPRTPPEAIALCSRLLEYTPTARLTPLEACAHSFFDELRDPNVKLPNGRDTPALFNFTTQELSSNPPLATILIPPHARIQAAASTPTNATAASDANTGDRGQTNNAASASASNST
Sequence of EEF2K (O00418 whole entry): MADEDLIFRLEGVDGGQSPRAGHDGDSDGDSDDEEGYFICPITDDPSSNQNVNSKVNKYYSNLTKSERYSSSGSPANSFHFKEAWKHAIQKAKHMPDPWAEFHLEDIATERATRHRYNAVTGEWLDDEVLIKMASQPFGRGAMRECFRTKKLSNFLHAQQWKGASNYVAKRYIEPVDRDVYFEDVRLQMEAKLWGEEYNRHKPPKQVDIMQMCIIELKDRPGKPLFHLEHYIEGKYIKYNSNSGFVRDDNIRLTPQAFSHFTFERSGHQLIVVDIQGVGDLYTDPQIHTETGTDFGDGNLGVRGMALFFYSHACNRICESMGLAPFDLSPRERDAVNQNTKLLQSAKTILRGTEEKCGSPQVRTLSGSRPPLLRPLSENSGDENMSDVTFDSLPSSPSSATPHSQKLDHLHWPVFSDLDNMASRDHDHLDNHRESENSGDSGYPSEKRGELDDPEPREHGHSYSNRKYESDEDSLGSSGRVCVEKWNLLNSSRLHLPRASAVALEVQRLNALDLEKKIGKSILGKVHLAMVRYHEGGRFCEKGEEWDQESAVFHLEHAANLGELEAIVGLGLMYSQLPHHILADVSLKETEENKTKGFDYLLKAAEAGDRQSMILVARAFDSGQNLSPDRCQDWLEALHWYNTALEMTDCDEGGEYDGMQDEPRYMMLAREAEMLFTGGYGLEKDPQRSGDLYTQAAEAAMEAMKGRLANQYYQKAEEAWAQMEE
Sequence of CDK7 (P50613 whole entry): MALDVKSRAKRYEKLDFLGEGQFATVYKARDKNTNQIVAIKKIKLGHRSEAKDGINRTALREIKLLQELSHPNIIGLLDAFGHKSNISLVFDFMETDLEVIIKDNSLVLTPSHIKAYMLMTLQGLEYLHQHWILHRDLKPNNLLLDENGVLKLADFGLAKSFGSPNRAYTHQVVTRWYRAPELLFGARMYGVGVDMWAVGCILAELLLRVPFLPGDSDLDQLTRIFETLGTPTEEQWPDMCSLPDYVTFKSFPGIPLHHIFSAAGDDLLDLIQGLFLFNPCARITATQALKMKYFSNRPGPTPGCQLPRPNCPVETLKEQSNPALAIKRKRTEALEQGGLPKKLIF
Sequence of CDK7 (P51946 whole entry partner): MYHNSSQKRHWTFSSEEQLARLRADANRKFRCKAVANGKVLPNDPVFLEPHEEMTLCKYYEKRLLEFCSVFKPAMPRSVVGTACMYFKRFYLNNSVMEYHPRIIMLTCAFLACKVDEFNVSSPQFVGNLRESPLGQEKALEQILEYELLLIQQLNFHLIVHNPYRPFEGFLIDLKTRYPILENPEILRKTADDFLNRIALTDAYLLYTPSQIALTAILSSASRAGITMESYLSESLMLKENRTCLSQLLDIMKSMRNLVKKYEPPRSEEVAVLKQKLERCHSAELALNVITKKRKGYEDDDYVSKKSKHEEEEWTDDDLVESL
Sequence of CDK7 (P51948 whole entry partner): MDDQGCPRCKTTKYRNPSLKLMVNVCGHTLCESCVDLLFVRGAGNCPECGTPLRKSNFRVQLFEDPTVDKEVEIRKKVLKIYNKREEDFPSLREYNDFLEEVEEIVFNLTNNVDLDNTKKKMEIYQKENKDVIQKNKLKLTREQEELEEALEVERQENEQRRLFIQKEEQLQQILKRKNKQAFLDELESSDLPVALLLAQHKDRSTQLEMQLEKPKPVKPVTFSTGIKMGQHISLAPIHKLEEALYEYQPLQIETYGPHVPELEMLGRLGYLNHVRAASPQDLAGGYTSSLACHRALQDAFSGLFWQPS
Sequence of PRKCD (Q05655 whole entry): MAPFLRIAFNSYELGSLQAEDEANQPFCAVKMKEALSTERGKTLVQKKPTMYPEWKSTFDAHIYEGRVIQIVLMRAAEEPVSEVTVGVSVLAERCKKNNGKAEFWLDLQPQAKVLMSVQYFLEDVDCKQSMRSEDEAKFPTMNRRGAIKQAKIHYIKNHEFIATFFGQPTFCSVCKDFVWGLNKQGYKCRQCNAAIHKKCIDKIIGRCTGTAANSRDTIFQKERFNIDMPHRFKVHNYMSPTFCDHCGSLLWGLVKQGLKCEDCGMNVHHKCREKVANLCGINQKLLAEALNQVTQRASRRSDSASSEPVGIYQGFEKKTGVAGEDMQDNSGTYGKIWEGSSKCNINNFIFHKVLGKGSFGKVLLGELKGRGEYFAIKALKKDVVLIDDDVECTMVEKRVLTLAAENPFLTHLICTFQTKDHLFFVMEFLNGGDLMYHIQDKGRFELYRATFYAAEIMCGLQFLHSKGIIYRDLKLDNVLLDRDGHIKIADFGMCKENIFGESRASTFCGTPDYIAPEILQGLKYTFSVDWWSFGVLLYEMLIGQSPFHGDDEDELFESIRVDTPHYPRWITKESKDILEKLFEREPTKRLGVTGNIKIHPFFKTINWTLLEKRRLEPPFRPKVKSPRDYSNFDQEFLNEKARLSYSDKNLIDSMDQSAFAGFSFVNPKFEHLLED

The term IC50 denotes the concentration needed to halve the response being measured. Broadly, the half-life is how long it takes for the measured level to halve. With `c1ccc2c(CNNc3ncnc4sc5c(c34)CCCC5)c[nH]c2c1` [B32B3], the “Selectivity for VprBP over 33 other kinases” value in data set [1] (panel of 33 human kinases) is given as “greater than 100 fold”. Besides, the 50% inhibitory concentration (IC50) in [1] (panel of 33 human kinases, read-out: IC50 for VprBP as stated in text) was 0.6 µM; in data set [2], more than 10 µM; in data set [3], more than 10 µM; in data set [4] it was more than 10 µM; in data set [5], more than 10 µM; in data set [6] it was more than 10 µM. Moreover, the concentration for half-maximal inhibition (IC50) in [7] and in [8] was more than 10 µM in each case. For the same compound, the “Inhibition of VprBP and H2AT120p in in vitro kinase assay (library screen)” value in data set [1] (recombinant H2A and VprBP, western blotting with H2AT120p antibody) is “inhibited VprBP and decreased H2AT120p”. This compound showed a half-life at 10 μM in data set [9] of approximately 7 h.
